Measured values taken from patent US9024041B2, “P38 MAP kinase inhibitors” (Respivert Ltd., priority 2010, dated 2015).

Legend:
[1] = target: T1, p38 MAPKα isoform (MAPK14: Invitrogen) (Homo sapiens, UniProt Q16539); assay: p38 MAPKα enzyme inhibition assay (FRET, Z-LYTE, via MAPKAP-K2 activation); type: biochemical; details: 2 hr pre-incubation, ATP 10.0 μM; read-out: Enzyme Inhibition IC50 p38α
T1 construct: purchased Invitrogen
Description: The enzyme inhibitory activities of compounds disclosed herein were determined by fluorescence resonance energy transfer (FRET) using synthetic peptides labelled with both donor and acceptor fluorophores (Z-LYTE, Invitrogen Ltd., Paisley, UK). Recombinant, phosphorylated p38 MAPKγ (MAPK12:Invitrogen) was diluted in HEPES buffer, mixed with the test compound at the desired final concentrations and incubated for 2 hr at RT. The FRET peptide (2 μM) and ATP (100 μM) were added to the enzyme/compound mixture and incubated for 1 hr. Development reagent (protease) was added for 1 hr prior to detection in a fluorescence microplate reader (Varioskan® Flash, ThermoFisher Scientific). The site-specific protease cleaves non-phosphorylated peptide only and eliminates the FRET signal. Phosphorylation levels of each reaction were calculated using the ratio of coumarin emission (donor) over fluorescein emission (acceptor) for which high ratios indicate high phosphorylation and low ratios indicate low phosphorylation levels.
For the p38 MAPKα isoform (MAPK14: Invitrogen), enzyme activity was evaluated indirectly by determining the level of activation/phosphorylation of the down-stream molecule, MAPKAP-K2. The p38 MAPKα protein was mixed with the test compound for 2 hr at RT. […] Development reagent was then added and the mixture incubated for 1 hr before detection by fluorescence completed the assay protocol.

[2] = target: T2, Recombinant, phosphorylated p38 MAPKγ (MAPK12:Invitrogen) (Homo sapiens, UniProt P53778); assay: p38 MAPKγ enzyme inhibition assay (FRET, Z-LYTE); type: biochemical; details: 2 hr pre-incubation, ATP 100 μM; read-out: Enzyme Inhibition IC50 p38γ
T2 construct: purchased Invitrogen
T2 sequence (P53778 1-367): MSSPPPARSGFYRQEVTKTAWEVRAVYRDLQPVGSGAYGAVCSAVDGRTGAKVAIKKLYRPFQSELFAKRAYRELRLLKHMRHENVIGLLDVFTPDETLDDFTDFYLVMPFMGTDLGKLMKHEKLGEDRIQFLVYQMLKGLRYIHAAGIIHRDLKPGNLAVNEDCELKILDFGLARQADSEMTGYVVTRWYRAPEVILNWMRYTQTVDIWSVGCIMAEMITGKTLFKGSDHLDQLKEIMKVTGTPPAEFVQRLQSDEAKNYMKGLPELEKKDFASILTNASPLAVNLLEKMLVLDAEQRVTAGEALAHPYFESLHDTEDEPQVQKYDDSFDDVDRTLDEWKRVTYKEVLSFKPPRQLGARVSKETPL

[3] = test system: LPS-induced TNFα release in THP-1 cells; assay: LPS-induced TNFα release in THP-1 cells; type: cell-based; details: Homo sapiens, 3 μg/mL LPS, 4 hr
Description: Cellular Potency as Determined by LPS-Induced TNFα Release in THP-1 Cells
THP-1 cells, a human monocytic cell line, were stimulated with 3 μg/mL of LPS (from E. Coli; 0111:B4, Sigma) for 4 hr and the supernatant collected for determination of the TNFα concentration by sandwich ELISA (Duo-set, R&D systems). The inhibition of TNFα production was calculated at each concentration by comparison with vehicle control. The 50% inhibitory concentration (IC50) was determined from the resultant concentration-response curve.

[4] = test system: LPS-induced TNFα release in d-U937 cells; assay: LPS-induced TNFα release in d-U937 cells; type: cell-based; details: Homo sapiens, dU937, 4 h; read-out: LPS/TNFα REC50 d-U937
Description: (§1) Cellular Potency as Determined by LPS-Induced TNFα/IL-8 Release in d-U937Cells
(§2) U937 cells, a human monocytic cell line, were differentiated to macrophage-type cells by incubation with phorbol myristate acetate (PMA; 100 ng/mL) for 48 to 72 hr. Cells were pre-incubated with final concentrations of test compound for 2 hr and were then stimulated with 0.1 μg/mL of LPS (from E. Coli: O111:B4, Sigma) for 4 hr. The supernatant was collected for determination of TNFα and IL-8 concentrations by sandwich ELISA (Duo-set, R&D systems). […] The relative 50% effective concentration (REC50) was determined from the resultant concentration-response curve. The inhibition of IL-8 production was calculated at each concentration of test compound by comparison with vehicle control. The 50% inhibitory concentration (IC50) was determined from the resultant concentration-response curve.

[5] = test system: LPS-induced IL-8 release in d-U937 cells; assay: LPS-induced IL-8 release in d-U937 cells; type: cell-based; details: Homo sapiens, dU937, 0.1 μg/mL LPS, 4 hr
Description: as §1, §2

[6] = test system: Poly I:C-induced ICAM-1 expression in BEAS2B cells; assay: Poly I:C-induced ICAM-1 induction in BEAS2B cells; type: cell-based; details: Homo sapiens, BEAS-2B, poly I:C 1 μg/mL, 18 hr, read-out: PolyI:C/ICAM1 IC50 BEAS2B
Description: Cellular Potency as Determined by Poly I:C-Induced ICAM-1 Induction in BEAS2B Cells
Poly I:C (1 μg/mL) (Invivogen Ltd., San Diego, Calif.) was transfected into BEAS2B cells (human bronchial epithelial cells, ATCC) with Oligofectamine (Invitrogen, Carlsbad, Calif.). Cells were pre-incubated with final concentrations of test compounds for 2 hr and the level of ICAM1 expression on the cell surface was determined by cell-based ELISA. At a time point 18 hr after poly I:C transfection, cells were fixed with 4% formaldehyde in PBS and then endogenous peroxidase was quenched by the addition of 0.1% sodium azide and 1% hydrogen peroxide. Cells were washed with wash-buffer (0.1% Tween in PBS: PBS-Tween). and after blocking the wells with 5% milk in PBS-Tween for 1 hr, the cells were incubated with anti-human ICAM-1 antibody (Cell Signaling Technology, Danvers, Mass.) in 1% BSA PBS overnight at 4° C. The cells were washed with PBS-Tween and incubated with the secondary antibody (HRP-conjugated anti-rabbit IgG, Dako Ltd., Glostrup, Denmark). The ICAM-1 signal was detected by adding substrate and reading the absorbance at 450 nm against a reference wavelength of 655 nm using a spectrophotometer. The cells were then washed with PBS-Tween and total cell numbers in each well were determined by reading absorbance at 595 nm after Crystal Violet staining and elution by 1% SDS solution. The measured OD 450-655 readings were corrected for cell number by dividing with the OD595 reading in each well. The inhibition of ICAM-1 expression was calculated at each concentration of test compound by comparison with vehicle control. The 50% inhibitory concentration (IC50) was determined from the resultant concentration-response curve.

[7] = test system: Differentiated U937 cells; assay: MTT assay: cell viability on exposure to test compounds; type: cell-based, human; details: percentage loss of cell viability vs vehicle, 1 μg/mL; for MTT Assay (Viability) 4 h d-U937: 5% FCS; for MTT Assay (Viability) 24 h d-U937: 10% FCS
Description: MTT Assay: Determination of Cell Viability on Exposure to Test Compounds
Differentiated U937 cells were pre-incubated with each test compound under two protocols: the first for 4 hr in 5% FCS and the second in 10% FCS for 24 h. The supernatant was replaced with 200 μL of new media and 10 μL of MTT stock solution (5 mg/mL) was added to each well. After incubation for 1 hr the media were removed, 200 μL of DMSO was added to each well and the plates were shaken lightly for 1 hr prior to reading the absorbance at 550 nm. The percentage loss of cell viability was calculated for each well relative to vehicle (0.5% DMSO) treatment. Consequently an apparent increase in cell viability for drug treatment relative to vehicle is tabulated as a negative percentage.

T1 sequence (Q16539 whole entry, canonical isoform): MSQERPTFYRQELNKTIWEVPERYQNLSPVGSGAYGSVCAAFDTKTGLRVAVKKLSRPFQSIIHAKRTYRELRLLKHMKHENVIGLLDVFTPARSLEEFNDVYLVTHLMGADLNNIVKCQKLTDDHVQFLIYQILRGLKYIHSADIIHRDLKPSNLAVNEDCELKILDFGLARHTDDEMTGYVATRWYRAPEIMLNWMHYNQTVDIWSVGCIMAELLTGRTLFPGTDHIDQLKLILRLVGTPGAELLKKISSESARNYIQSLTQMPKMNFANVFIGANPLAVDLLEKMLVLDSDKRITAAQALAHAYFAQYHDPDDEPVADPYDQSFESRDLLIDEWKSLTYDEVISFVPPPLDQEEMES

With COCC(=O)Nc1cc(Oc2ccc(NC(=O)Nc3cc(C(C)(C)C)nn3-c3ccc(N)cc3)c3ccccc23)ccn1 [Example 1, N-(4-(4-(3-(1-(4-Aminophenyl)-3-tert-butyl-1H-pyrazol-5-yl)ureido)naphthalen-1-yloxy)pyridin-2-yl)-2-methoxyacetamide] the IC50 [1] was 0.9 nM, the IC50 [2] was 72.4 nM and the IC50 [3] was 1 nM. The EC50 [4] was 0.6 nM, the IC50 [5] was 1 nM and the IC50 [6] was 8.3 nM. For the same compound, the “MTT Assay (Viability) 4 h d-U937” value [7] was −26.6% and the “MTT Assay (Viability) 24 h d-U937” value [7] was 78.0%.

Compound COCC(=O)Nc1cc(Oc2ccc(NC(=O)Nc3cc(C(C)(C)C)nn3-c3ccc(NS(C)(=O)=O)cc3)c3ccccc23)ccn1 [Example 2, N-(4-(4-(3-(3-tert-Butyl-1-(4-(methylsulfonamido)phenyl)-1H-pyrazol-5-yl)ureido)naphthalen-1-yloxy)pyridin-2-yl)-2-methoxyacetamide] has an IC50 [1] of 13 nM, an IC50 [2] of 42.3 nM and an IC50 [3] of 1.3 nM. It also gave an EC50 [4] of 0.4 nM, an IC50 [5] of 7.2 nM and an IC50 [6] of 4.1 nM. The “MTT Assay (Viability) 4 h d-U937” value [7] was −13.2% and the “MTT Assay (Viability) 24 h d-U937” value [7] was 15.1%.

CN(C)C(=O)Nc1cc(Oc2ccc(NC(=O)Nc3cc(C(C)(C)C)nn3-c3ccc(S(C)(=O)=O)cc3)c3ccccc23)ccn1 [Example 15, 3-(4-(4-(3-(3-tert-Butyl-1-(4-(methylsulfonyl)phenyl)-1H-pyrazol-5-yl)ureido)naphthalen-1-yloxy)pyridin-2-yl)-1,1-dimethylurea] showed an IC50 [1] of 23.6 nM, an IC50 [2] of 81.5 nM and an IC50 [3] of 1.5 nM. The IC50 [5] was 2.4 nM, the IC50 [6] was 16.3 nM and the “MTT Assay (Viability) 4 h d-U937” value [7] was −15.4%. The “MTT Assay (Viability) 24 h d-U937” value [7] was −66.2%.

With COCC(=O)Nc1cc(Oc2ccc(NC(=O)Nc3cc(C4(C)CC4)nn3-c3ccc(C)cc3)c3ccccc23)ccn1 [Example 25, 2-methoxy-N-(4-(4-(3-(3-(1-methylcyclopropyl)-1-p-tolyl-1H-pyrazol-5-yl)ureido)naphthalen-1-yloxy)pyridin-2-yl)acetamide] the IC50 [1] was 3.4 nM, the IC50 [2] was 3010 nM and the IC50 [3] was 0.9 nM. For the same compound, the IC50 [5] was 0.7 nM, the IC50 [6] was 21.8 nM and the “MTT Assay (Viability) 4 h d-U937” value [7] was −7.6%. For the same compound, the “MTT Assay (Viability) 24 h d-U937” value [7] was 4.7%.

For CC(C)(C)c1cc(NC(=O)Nc2ccc(Oc3ccnc(NC(=O)N4CCCC4)c3)c3ccccc23)n(-c2ccc(O)cc2)n1 [Example 35, N-(4-(4-(3-(3-tert-butyl-1-(4-hydroxyphenyl)-1H-pyrazol-5-yl)ureido)naphthalen-1-yloxy)pyridin-2-yl)pyrrolidine-1-carboxamide], the IC50 [1] was 11.3 nM, the IC50 [2] was 324 nM and the IC50 [3] was 1.6 nM. For the same compound, the IC50 [5] was 1.9 nM, the IC50 [6] was 2.1 nM and the “MTT Assay (Viability) 4 h d-U937” value [7] was −15.4%. The “MTT Assay (Viability) 24 h d-U937” value [7] was −41.3%.

COCC(=O)Nc1cc(Oc2ccc(NC(=O)Nc3cc(C(C)(C)C)nn3-c3ccc(CO)c(OC)c3)c3ccccc23)ccn1 [Example 51, N-(4-(4-(3-(3-tert-butyl-1-(4-(hydroxymethyl)-3-methoxyphenyl)-1H-pyrazol-5-yl)ureido)naphthalen-1-yloxy)pyridin-2-yl)-2-methoxy acetamide] was tested, and the IC50 [1] was 11.9 nM, the IC50 [2] was 149 nM and the IC50 [3] was 1.6 nM. The IC50 [5] was 38.7 nM, the IC50 [6] was 2.5 nM and the “MTT Assay (Viability) 4 h d-U937” value [7] was −5.2%. The “MTT Assay (Viability) 24 h d-U937” value [7] was 61.0%.

COCC(=O)Nc1cc(Oc2ccc(NC(=O)Nc3cc(C(C)(C)C)nn3-c3cccs3)c3ccccc23)ccn1 [Example 56, N-(4-(4-(3-(3-tert-butyl-1-(thiophen-2-yl)-1H-pyrazol-5-yl)ureido)naphthalen-1-yloxy)pyridin-2-yl)-2-methoxyacetamide] showed an IC50 [1] of 6.6 nM, an IC50 [2] of 55 nM and an IC50 [3] of 0.6 nM. The IC50 [5] was 0.5 nM, the IC50 [6] was 13.4 nM and the “MTT Assay (Viability) 4 h d-U937” value [7] was 4.8%. For the same compound, the “MTT Assay (Viability) 24 h d-U937” value [7] was 43.1%.
